Laboratory results from patent US20120015923A1, “USE OF ANDROGRAPHOLIDE COMPOUNDS FOR TREATING INFLAMMATION AND AIRWAY DISORDERS” (NATIONAL UNIVERSITY OF SINGAPORE, priority 2009, published 2012).

Key:
[1] = test system: total IgE and OVA-specific IgE, IgG1, and IgG2a in serum; assay: Serum Ig levels (ELISA), OVA mouse asthma model; type: in vivo, BALB/c mice; details: OVA-challenged mice, serum 24 hours after last OVA aerosol; for serum OVA-specific IgE level: DDAG even at lowest dose 0.1 mg/kg
Procedure: Blood collected from the hearts were allowed to clot for at least 4 h. Centrifugation at 3000 rpm for 5 min at 4° C. was then performed on all blood samples. The supernatant, which is the serum, was extracted carefully and stored at −80° C. The samples were kept for ELISA.
Mice were anesthetized 24 hours after the last aerosol challenge and bronchoalveolar lavage (BAL) was performed as described above. BAL fluid total and differential cell counts, and cytokine and chemokine levels were determined as described above. Blood was collected by cardiac puncture, and serum levels of total IgE and OVA-specific IgE, IgG1, and IgG2a levels were determined.
Levels of total IgE and OVA-specific IgE, IgG 1 , and IgG2a in serum were measured. 96-well ELISA plate coated with either 50 μl of capture antibody (for total IgE, 1:250 dilution with 1 M Na2CO3) or 50 μl of 20 μg/ml OVA (for OVA-specific IgE, IgG1, and IgG2a) overnight at 4° C. Next day, the plate was washed with washing buffer (PBS with 0.05% Tween-20 for total IgE; PBS with 0.1% Tween-20 for OVA-specific IgE) and blocked with 300 μl 10% FBS in PBS for 2 hr at room temperature. After blocking, standards (only for total IgE) and serum samples were loaded into respective wells and incubated for 2 h. Followed by washing, respective detective antibodies were added and incubated for 1 h, followed by 45 min incubation of HRP-conjugate antibody for 45 min in the dark. Substrates were then added for 30 min in the dark with mild shaking. Lastly, 50 μl of stopping solution (1 M H2SO4) was added to stop the reaction. The optical density of each well in the plate was read at 450 nm with λ correction at 570 nm. The detection limit for total IgE was 2 ng/ml.

[2] = test system: inflammatory gene expression in lung tissues; assay: Pulmonary mRNA expression of inflammatory markers (RT-PCR); type: in vivo, BALB/c mice; details: lungs 24 hours after last OVA aerosol
Procedure: Lungs were isolated from the thoracic cavity 24 hours after the last OVA or saline challenge, and stored in RNAlater. The samples were first incubated at […] overnight for the RNAlater to permeate into the lung tissues to stabilize the RNA. The samples were then stored at −80° C. Before RNA isolation, lung tissues were thawed at […] They were then removed from the RNAlater and immersed in 1 ml Trizol solution. Then, homogenization was performed using a homogenizer (SilentCrusher M, Heidolph Elektro GmbH & Co., Kelheim, Genman). All samples were placed on ice to prevent RNA degradation. The homogenates were then centrifuged at 12,000 g for 10 min at 4° C. The clear RNA containing supernatant was then decanted, incubated for 5 min in room temperature, and 0.2 ml of chloroform was added. All tubes were shaken vigorously for 15 seconds and incubated at room temperature for 3 minutes before being centrifuged at 12,000 g for 15 min at 4° C. About 500 μl of the colourless upper aqueous layer containing RNA, was decanted. 0.5 ml of isopropanol was added and mixed for 30 sec, before being incubated at room temperature for 10 minutes. The tubes were then centrifuged at 12000 rpm for 15 min at 4° C. The supernatant was discarded and 1 ml of 75% ethanol was added to the RNA pellet. Centrifugation at 8500 rpm for 5 minutes at 4° C. was then performed to wash the pellet. The supernatant was again discarded and the washed RNA pellet was air-dried at room temperature for 10 min. The dried RNA pellet was dissolved in 100 μl of ribonuclease-free DEPC water and incubated at 55° C. for 10 minutes. The amount and purity of RNA present in the sample was quantified using the spectrophotometer (NanoDrop ND-1000 from Thermo Risher
Reverse transcription was performed to synthesize single-stranded complementary DNA (cDNA) templates from the RNA extracted. Volume containing 1 μg total RNA was calculated based on the nucleic acid concentration measured from the spectrophotometer, and was topped up to 20 μl with DEPC water. 10.58 μl of master mix was then added to each sample. Then, cDNA was synthesized from 1 μg of RNA using a multiwall thermal cycler (GeneAmp PCR system 2700 from Applied Biosystems, Foster City, Calif., USA) by bringing the reaction volume to 95° C. for 10 minutes and 42° C. for 30 minutes.
PCR amplifications were then performed using the multiwell thermal cycler on 1 μl cDNA template in a 25 μl reaction volume. The reaction volume contained 10.5 μl nuclease-free water, 0.5 μl forward primer (10 μM), 0.5 μl reverse primer (10 μM) and 12.5 μl 2×PCR master mix (50 units/ml TaqDNA polymerase, 400 μM dATP, 400 μM dGTP, 400 μM dCTP, 400 μM dTTP and 3 mM MgCl2).

[3] = DDAG significant at higher doses

SMILES	serum OVA-specific IgG2a level [1]	serum OVA-specific IgE level [1]	serum OVA-specific IgG1 level [1, 3]	serum total IgE level [1, 3]	ICAM-1 gene expression in lung [2]	VCAM-1 gene expression in lung [2]	YM1 gene expression in lung [2]	inducible nitric oxide synthase mRNA expression in lung tissues [2]	AMCase mRNA expression in lung tissues ([2]; DDAG 1 mg/kg)	E-selectin mRNA expression in lung tissues ([2]; DDAG 1 mg/kg)	Muc5ac mRNA expression in lung tissues ([2]; DDAG 1 mg/kg)	YKL-40 mRNA expression in lung tissues ([2]; DDAG 1 mg/kg)	Ym2 mRNA expression in lung tissues ([2]; DDAG 1 mg/kg)	COX2 mRNA expression in lung tissues ([2]; DDAG 1 mg/kg)	IL-17 mRNA expression in lung tissues ([2]; DDAG 1 mg/kg)	IL-33 mRNA expression in lung tissues ([2]; DDAG 1 mg/kg)
C=C1CC[C@@H]2[C@](C)(CO)[C@H](O)CC[C@@]2(C)[C@@H]1C/C=C1/C(=O)OC[C@H]1O [Andrographolide]	inhibition	significantly lowered	inhibition	significantly lowered	inhibition	inhibition	inhibition	attenuated	markedly down-regulated	attenuated	attenuated	markedly down-regulated	markedly down-regulated			
C=C1CCC2C(C)(CO)C(O)CCC2(C)C1C=CC1=CCOC1=O (stereo not drawn) [DDAG, 14-Deoxy-11,12-didehydroandrographolide]	no effects	strongly suppressed		to a lesser extent					strong suppression	strong suppression	strong suppression	strong suppression	strong suppression	strong suppression	strong suppression	strong suppression
